The test system of data set [1] is paw twitch. Description: Twitch depression (muscle relaxant effect) in anesthetized dogs; dog paw twitch. It is filed as in vivo, mongrel dogs. To be noted: Table V; for ED90: Canis lupus familiaris, iv, dog paw twitch, read-out: Equi-efficacious dose; for Duration (DURAT.) / Onset / Recovery (RECOV.): dog, at equi-efficacious dose. How it is done:
(§1) Mongrel dogs were injected with 50 mg/kg of pentobarbital until the onset of anesthesia as determined by the eyeblink reflex test. The injectable solutions prepared above were administered intravenously to the anesthesized mongrel dogs and measurements were made of the muscle relaxant effect including maximum twitch depression, onset, duration and recovery time in a clinically known manner. Each of the subjects were compared with a control animal receiving an injection of distilled water.

A short description of data set [2]: Cardiovascular change (HR, BP) at equi-efficacious dose in rabbits. It is filed as in vivo. The settings on record: Table IV, rabbit, at equi-efficacious dose.
In data set [3] the test system is neuromuscular blockade. To be noted: background, in words; cited from earlier work.
The test system of data set [4] is paw twitch. Briefly: Twitch depression (muscle relaxant effect) in anesthetized rabbits; rabbit paw twitch. It is filed as in vivo, New Zealand White rabbits. The settings on record: Table IV; for ED90: Oryctolagus cuniculus, rabbit paw twitch, read-out: Equi-efficacious dose; for Duration (DURAT.) / Onset / Recovery (RECOV.): rabbit, at equi-efficacious dose. On the procedure: [The procedure below names another organism; the source lists this organism under the same test.] as §1
The same compound of the present invention as in
A number of compounds in accordance with the present invention were tested for their neuromuscular blockade Properties. Specifically, the acid addition salts of the compounds were dissolved in sterile water for injection.

The nature of data set [5]: Cardiovascular change (HR, BP) at equi-efficacious dose in dogs. To be noted: Table V, dog, at equi-efficacious dose. It is filed as in vivo.
The mark [6] stands for this setting: depolarizer, based on twitch recovery not to-f.

The structures appear in SMILES notation.

With `CC(=O)O[C@H]1C[C@@H]2CC[C@@H]3[C@H](CC[C@@]4(C)[C@H]3C[C@H]([N+]3(C)CCCCC3)[C@@H]4OC(C)=O)[C@@]2(C)C[C@@H]1[N+]1(C)CCCCC1` [pancuronium], in data set [1], the ED90 was 0.013 mg/kg, the “Duration (DURAT.)” value stood at 45.7 min, the Onset worked out at 169.0 s and the “Recovery (RECOV.)” value was determined as 35.6 min. In data set [2], the BP % is listed as 2.7% and the HR % was found to be 0.0%. Moreover, the “duration of paralysis and recovery” value in data set [3] was “maintain paralysis for an undesirably long time and the recovery period is slow”. Besides, in data set [4], the ED90 was 0.022 mg/kg, the “Duration (DURAT.)” value was found to be 32.5 min, the Onset turned out to be 147.5 s and the “Recovery (RECOV.)” value came to 17.4 min. In addition, in data set [5], the BP % is given as -1.8% and the HR % stood at 0.2%.
On to `C[N+](C)(C)CCOC(=O)CCC(=O)OCC[N+](C)(C)C` [succinylcholine], for which, in data set [1], the ED90 turned out to be 0.043 mg/kg and the Onset worked out at 98.9 s. Moreover, in data set [1] (setting [6]), the “Duration (DURAT.)” value was found to be 8.8 min and the “Recovery (RECOV.)” value was found to be 5.4 min. Also, in data set [2], the BP % is on record as -4.1% and the HR % is 0.2%. The “reversibility by anticholinesterase drugs” value in data set [3] was “not easily reversed by anticholinesterase drugs”. In data set [4], the ED90 is 0.447 mg/kg and the Onset came to 39.4 s. Besides, in data set [4] (setting [6]), the “Duration (DURAT.)” value was 18.6 min and the “Recovery (RECOV.)” value was 18.6 min. In data set [5], the BP % amounted to 25.7% and the HR % was 34.9%.

Values taken from US4863918A, “Enamine quaternary compounds, methods of making and their use as muscle relaxants” (BOC, Inc., priority 1988, dated 1989).
